According to doi:10.1101/2025.10.30.685691v1 (biorxiv, 2025):

Tests used:
[1] = target: BaPDH (WT-BaPDH, full-length ACT-containing prephenate dehydrogenase) (Bacillus anthracis, UniProt Q81P63); experiment: biochemical
[2] = test system: O=C(O)C(=O)CC1(C(=O)O)C=CC(O)C=C1; experiment: purified protein; settings: pH 7.5

Sequence of BaPDH (WT-BaPDH, full-length ACT-containing prephenate dehydrogenase) (Q81P63 1-378 limits assumed): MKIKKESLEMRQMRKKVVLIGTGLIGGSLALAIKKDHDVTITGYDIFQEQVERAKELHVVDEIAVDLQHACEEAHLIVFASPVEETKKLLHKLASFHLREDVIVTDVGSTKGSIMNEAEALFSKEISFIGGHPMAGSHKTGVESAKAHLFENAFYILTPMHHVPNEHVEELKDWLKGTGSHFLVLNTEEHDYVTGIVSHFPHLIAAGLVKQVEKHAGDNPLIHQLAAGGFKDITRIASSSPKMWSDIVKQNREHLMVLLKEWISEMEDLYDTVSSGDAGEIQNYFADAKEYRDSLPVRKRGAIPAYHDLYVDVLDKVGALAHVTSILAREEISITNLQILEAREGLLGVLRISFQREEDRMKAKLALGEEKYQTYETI

Row | Compound | Ki [1] [µM] | Km [2] [µM]
1 | N[C@@H](Cc1ccc(O)cc1)C(=O)O [tyrosine] | 1.5 ± 0.2 | 
2 | BaPDH (WT-BaPDH, full-length ACT-containing prephenate dehydrogenase) (Bacillus anthracis) |  | 78 ± 10
